Experiment [1] relates to RBL-2H3 cells. In words: Inhibition of serotonin liberation from IgE-sensitized RBL-2H3 cells after antigen stimulation. The conditions noted are these: Rattus norvegicus; [3H]-serotonin release, IgE-sensitized RBL-2H3 cells, antigen stimulation; read-out: IC50 (μM) in serotonin liberation from RBL-2H3 cells. The experiment is classed as cell-based, rat. The procedure, abridged:
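Rat RBL-2H3 cells labelled with [3H]-serotonin and sensitized with IgE simultaneously, incubated with compound, then challenged with specific antigen. Inhibition derived from [3H]-serotonin released into medium relative to release without compound.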

In experiment [2] the test system is human basophils. In words: Inhibition of mediator (histamine, peptide leukotriene) liberation from human basophils stimulated with mite antigen. The experiment is classed as cell-based. The conditions noted are these: enzyme immunoassay. The procedure, abridged: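 Dextran-separated leukocyte fraction containing basophils from heparinized human blood, in D-PBS(+) with 0.1% BSA, pretreated with compound 15 min at 37 °C, then challenged with mite antigen for 10 min. Released histamine and peptide leukotrienes in supernatant quantified by enzyme immunoassay.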

The mark [3] stands for this setting: histamine, read-out: IC50 (μM) in mediator liberation from human basophils: histamine.
[4] abbreviates: peptide leukotriene, read-out: IC50 (μM) in mediator liberation from human basophils: leukotriene.

Like-named read-outs stand apart in the source and are kept apart here. Where only a bound is given, the exact number is not on record here.

Take `Cc1ccc2c(c1C)N(CCCNCCc1ccccc1)c1ccc(F)cc1[S+]2[O-]` (centres unmarked) [Example 86]: the IC50 is 1 µM in experiment [1], 10 to 30 µM in experiment [2] (setting [3]) and 10 µM in experiment [2] (setting [4]).
In the same order, the values of `COc1ccsc1CNCCCN1c2ccc(F)cc2[S+]([O-])c2ccc(C)c(C)c21` (centres unmarked) [Example 87] are 3 µM, 3 to 10 µM and 3 to 10 µM.
As to `Cc1ccc2c(c1C)N(CCCNCc1ccccc1)c1cc(C#N)ccc1[S+]2[O-]` (centres unmarked) [Example 90], the IC50 in experiment [1] was 3 µM; in experiment [2] (setting [3]), 30 to 100 µM; in experiment [2] (setting [4]), 10 to 30 µM.
In the same order, the values of `Cc1cc(C)c2c(c1C)N(CCCNCc1ccccc1)c1ccccc1[S+]2[O-]` (centres unmarked) [Example 100] are 2 µM, 3 µM and 10 µM.
Regarding `Cc1ccc2c(c1C)N(CCCNC(C)c1ccccc1O)c1ccccc1[S+]2[O-]` (centres unmarked) [Example 102], the IC50 in experiment [1] was 1 µM; in experiment [2] (setting [3]), 30 µM; in experiment [2] (setting [4]), 10 to 30 µM.
For `Cc1ccc2c(c1C)N(CCCN1CCc3ccccc3C1)c1ccccc1[S+]2[O-]` (centres unmarked) [Example 108], in that order: 2 µM, 30 µM and 10 to 30 µM.
For `Cc1ccc2c(c1C)N(CCCNCCOc1ccccc1)c1ccccc1[S+]2[O-]` (centres unmarked) [Example 113], in that order: 3 µM, 10 µM and < 10 µM.
For `Cc1ccc2c(c1C)N(CCCN1CCN(Cc3ccccc3O)CC1)c1ccccc1[S+]2[O-]` (centres unmarked) [Example 114], in that order: 2 µM, 30 to 100 µM and 10 µM.
With `Cc1ccc2c(c1C)N(Cc1cccc(CN3CCN(Cc4ccccc4)CC3)n1)c1ccccc1[S+]2[O-]` (centres unmarked) [Example 122], the results for the IC50 in experiment [1], in experiment [2] (setting [3]) and in experiment [2] (setting [4]) were 3 µM, 10 to 30 µM and < 10 µM, respectively.
For `Cc1ccc2c(c1C)N(CCCN(CCN(C)C)Cc1ccccc1)c1ccccc1[S+]2[O-]` (centres unmarked) [Example 125], in that order: 2 µM, < 10 µM and < 10 µM.
Take `Cc1ccc2c(c1C)N(CCCNC(CO)c1ccccc1)c1ccccc1[S+]2[O-]` (centres unmarked) [Example 128]: the IC50 in experiment [1] was 1 µM; in experiment [2] (setting [4]), 10 to 30 µM.
As to `CCOC(=O)CN(CCCN1c2ccccc2[S+]([O-])c2ccc(C)c(C)c21)Cc1ccccc1O` (centres unmarked) [Example 134], the IC50 in experiment [1], in experiment [2] (setting [3]) and in experiment [2] (setting [4]) was 3 µM in each case.
Regarding `Cc1ccc2c(c1C)N(CCCN(Cc1ccccc1O)CC(O)CO)c1ccccc1[S+]2[O-]` (centres unmarked) [Example 137], the IC50 is 1 µM in experiment [1], 10 to 30 µM in experiment [2] (setting [3]) and 3 µM in experiment [2] (setting [4]).
In the case of `Cc1ccc2c(c1C)N(CCCCNCc1ccccc1O)c1ccccc1[S+]2[O-]` (centres unmarked) [Example 140], the IC50 in experiment [1] was 3 µM; in experiment [2] (setting [3]) it was 10 µM; in experiment [2] (setting [4]) it was 3 to 10 µM.
For `Cc1ccc2c(c1C)N(CCNCc1ccccc1O)c1ccccc1[S+]2[O-]` (centres unmarked) [Example 144], in that order: 8 µM, 10 to 30 µM and 10 to 30 µM.
For `Cc1ccc2c(c1C)N(CCNCc1cccc(C)c1O)c1ccccc1[S+]2[O-]` (centres unmarked) [Example 145], in that order: 6 µM, 10 to 30 µM and < 10 µM.
For the compound `Cc1ccc2c(c1C)N(CCNCc1cc(Cl)cc(Cl)c1O)c1ccccc1[S+]2[O-]` (centres unmarked) [Example 146], the IC50 in experiment [1] was 3 µM; in experiment [2] (setting [3]), < 10 µM; in experiment [2] (setting [4]) it was < 10 µM.
Regarding `Cc1ccc2c(c1C)N(CCNCc1cccc(C(C)C)c1O)c1ccccc1[S+]2[O-]` (centres unmarked) [Example 147], the results for the IC50 in experiment [1], in experiment [2] (setting [3]) and in experiment [2] (setting [4]) were 3 µM, 10 µM and < 10 µM, respectively.
For `Cc1ccc2c(c1C)N(CCNCc1c(O)cccc1O)c1ccccc1[S+]2[O-]` (centres unmarked) [Example 150], in that order: 1 µM, 10 to 30 µM and 3 to 10 µM.
For `COCc1cccc(CNCCN2c3ccccc3[S+]([O-])c3ccc(C)c(C)c32)c1O` (centres unmarked) [Example 151], in that order: 2 µM, 10 to 30 µM and 3 to 10 µM.
In the same order, the values of `Cc1ccc2c(c1C)N(CCNCc1cccc(CO)c1O)c1ccccc1[S+]2[O-]` (centres unmarked) [Example 152] are 1 µM, 3 to 10 µM and < 3 µM.
Regarding `COc1cccc(CNCCN2c3ccccc3[S+]([O-])c3ccc(C)c(C)c32)c1O` (centres unmarked) [Example 154], the IC50 was 6 µM in experiment [1], 10 to 30 µM in experiment [2] (setting [3]) and < 10 µM in experiment [2] (setting [4]).
With `COc1ccccc1CNCCN1c2ccccc2[S+]([O-])c2ccc(C)c(C)c21` (centres unmarked) [Example 155], the IC50 in experiment [1] is 4 µM; in experiment [2] (setting [3]) it was 30 to 100 µM; in experiment [2] (setting [4]), 10 to 30 µM.
For `Cc1ccc2c(c1C)N(CCNCc1ccccc1CO)c1ccccc1[S+]2[O-]` (centres unmarked) [Example 156], in that order: 3 µM, 10 µM and 10 µM.
In the same order, the values of `Cc1ccc2c(c1C)N(CCNCc1ccccc1OCCO)c1ccccc1[S+]2[O-]` (centres unmarked) [Example 157] are 1 µM, 30 to 100 µM and 10 to 30 µM.
In the same order, the values of `Cc1ccc2c(c1C)N(CCNCc1ncc[nH]1)c1ccccc1[S+]2[O-]` (centres unmarked) [Example 162] are 1 µM, 30 to 100 µM and < 10 µM.
Regarding `Cc1ccc2c(c1C)N(CCNCc1cccc(C(F)(F)F)c1O)c1ccccc1[S+]2[O-]` (centres unmarked) [Example 163], the IC50 was 3 µM in experiment [1], 10 to 30 µM in experiment [2] (setting [3]) and 10 µM in experiment [2] (setting [4]).
For `Cc1ccc2c(c1C)N(CCCN(C)Cc1ccc(O)cc1)c1ccccc1[S+]2[O-]` (centres unmarked) [Example 165], in that order: 0.3 µM, 10 to 30 µM and 3 to 10 µM.
For `Cc1ccc2c(c1C)N(CCCN(C)Cc1cccc(O)c1)c1ccccc1[S+]2[O-]` (centres unmarked) [Example 166], the IC50 in experiment [1] is 0.5 µM; in experiment [2] (setting [3]) it was 10 to 30 µM; in experiment [2] (setting [4]), 3 to 10 µM.
On to `Cc1ccc2c(c1C)N(CCCN(C)Cc1cccc(C)c1O)c1ccccc1[S+]2[O-]` (centres unmarked) [Example 168], for which the IC50 in experiment [1] was 2 µM; in experiment [2] (setting [3]), < 10 µM; in experiment [2] (setting [4]), < 10 µM.
Regarding `COc1cccc(CN(C)CCCN2c3ccccc3[S+]([O-])c3ccc(C)c(C)c32)c1O` (centres unmarked) [Example 169], the IC50 in experiment [1] was 0.5 µM; in experiment [2] (setting [3]), 30 to 100 µM; in experiment [2] (setting [4]), 10 to 30 µM.
In the same order, the values of `COc1cccc(OC)c1CN(C)CCCN1c2ccccc2[S+]([O-])c2ccc(C)c(C)c21` (centres unmarked) [Example 170] are 0.5 µM, 10 to 30 µM and 3 µM.
For `Cc1ccc2c(c1C)N(CCCN(C)Cc1cc(O)ccc1O)c1ccccc1[S+]2[O-]` (centres unmarked) [Example 171], in that order: 0.8 µM, 3 to 10 µM and 3 to 10 µM.
With `Cc1ccc2c(c1C)N(CCCN(C)Cc1ccccc1OCCO)c1ccccc1[S+]2[O-]` (centres unmarked) [Example 173], the values for the IC50 in experiment [1], in experiment [2] (setting [3]) and in experiment [2] (setting [4]) were 0.3 µM, 30 µM and 10 µM, respectively.
Consider `Cc1ccc2c(c1C)N(CCCN(C)Cc1c(O)ccc(C)c1O)c1ccccc1[S+]2[O-]` (centres unmarked) [Example 174], for which the IC50 in experiment [1] is 0.5 µM; in experiment [2] (setting [3]), 10 to 30 µM; in experiment [2] (setting [4]), 10 µM.

These data come from patent US6703388B2, “Nitrogen-containing tricyclic compounds and drugs containing the same” (Eisai Co., Ltd., priority 1996, dated 2004).
